Experimental data reported in article PMC2386736 (Protein Science : A Publication of the Protein Society, 2009).
Like-named read-outs stand apart in the source and are kept apart here.

Legend:
Type in all cases: biochemical
[1] = molecular target: T1, USP2 (Homo sapiens, UniProt O75604)
[2] = molecular target: T2, USP7 (Homo sapiens, UniProt Q93009)
[3] = molecular target: T3, SENP2 (Homo sapiens, UniProt Q9HC62)
T3 sequence (Q9HC62 366-589): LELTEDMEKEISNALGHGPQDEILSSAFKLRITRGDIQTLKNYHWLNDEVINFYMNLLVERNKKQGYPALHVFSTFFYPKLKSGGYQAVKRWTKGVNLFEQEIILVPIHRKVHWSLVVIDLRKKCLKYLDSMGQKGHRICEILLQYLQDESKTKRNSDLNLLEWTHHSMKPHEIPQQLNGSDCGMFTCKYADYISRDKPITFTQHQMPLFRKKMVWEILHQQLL

[4] = molecular target: T2, USP7; experiment: Ub-PLA2 / NBD C6-HPC coupled fluorescence isopeptidase assay
[5] = molecular target: T1, USP2; experiment: as above
[6] = molecular target: T3, SENP2; experiment: SUMO3-PLA2 / NBD C6-HPC coupled fluorescence isopeptidase assay

T2 sequence (Q93009 whole entry): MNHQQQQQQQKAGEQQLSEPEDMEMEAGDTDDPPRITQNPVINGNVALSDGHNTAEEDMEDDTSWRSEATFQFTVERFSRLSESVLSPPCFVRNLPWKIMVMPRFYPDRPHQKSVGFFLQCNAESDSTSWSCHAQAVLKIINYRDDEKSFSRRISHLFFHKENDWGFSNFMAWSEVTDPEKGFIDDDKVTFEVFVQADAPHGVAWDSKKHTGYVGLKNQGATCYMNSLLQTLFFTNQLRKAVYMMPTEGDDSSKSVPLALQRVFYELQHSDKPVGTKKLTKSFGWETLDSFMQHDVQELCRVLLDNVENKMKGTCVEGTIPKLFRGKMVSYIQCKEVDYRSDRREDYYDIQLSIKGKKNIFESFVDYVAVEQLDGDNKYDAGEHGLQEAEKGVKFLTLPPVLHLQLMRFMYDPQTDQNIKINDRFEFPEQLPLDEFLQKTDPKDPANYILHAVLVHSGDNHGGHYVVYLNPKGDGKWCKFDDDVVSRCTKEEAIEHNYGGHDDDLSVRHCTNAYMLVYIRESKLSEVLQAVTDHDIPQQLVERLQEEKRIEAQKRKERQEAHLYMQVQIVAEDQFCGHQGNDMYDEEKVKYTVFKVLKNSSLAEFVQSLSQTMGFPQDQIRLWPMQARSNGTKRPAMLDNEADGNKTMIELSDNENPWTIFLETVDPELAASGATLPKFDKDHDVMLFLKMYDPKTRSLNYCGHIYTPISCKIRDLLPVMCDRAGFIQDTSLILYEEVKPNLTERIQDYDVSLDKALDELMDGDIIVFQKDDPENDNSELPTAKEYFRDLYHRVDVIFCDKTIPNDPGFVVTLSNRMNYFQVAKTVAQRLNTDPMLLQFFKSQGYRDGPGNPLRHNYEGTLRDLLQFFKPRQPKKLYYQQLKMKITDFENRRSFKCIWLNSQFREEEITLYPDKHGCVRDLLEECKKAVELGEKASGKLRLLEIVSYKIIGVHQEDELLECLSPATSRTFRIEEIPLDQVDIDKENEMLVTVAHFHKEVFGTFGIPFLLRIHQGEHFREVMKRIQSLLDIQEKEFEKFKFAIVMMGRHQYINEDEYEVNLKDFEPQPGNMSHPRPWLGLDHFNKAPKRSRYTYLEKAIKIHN
T1 sequence (O75604 259-605): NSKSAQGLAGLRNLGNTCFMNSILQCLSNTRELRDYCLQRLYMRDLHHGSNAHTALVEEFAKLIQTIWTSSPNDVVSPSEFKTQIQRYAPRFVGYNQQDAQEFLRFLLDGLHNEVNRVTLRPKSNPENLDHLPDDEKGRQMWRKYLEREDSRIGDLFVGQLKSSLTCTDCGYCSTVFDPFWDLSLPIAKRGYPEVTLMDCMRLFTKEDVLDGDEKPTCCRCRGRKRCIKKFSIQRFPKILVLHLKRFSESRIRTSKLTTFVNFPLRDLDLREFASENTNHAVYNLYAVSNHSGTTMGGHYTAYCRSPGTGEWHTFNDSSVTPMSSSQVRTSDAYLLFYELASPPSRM

EC50 [1] [µM]	EC50 [2] [µM]	EC50 [3] [µM]	EC50 [4] [µM]	EC50 [5] [µM]	EC50 [6] [µM]	SMILES
45 ± 4	37 ± 1	9.8 ± 1.8				Cc1ccc(/C=C2\CNC/C(=C\c3ccc(C)cc3)C2=O)cc1 [NSC 632839]
			1400 ± 70	1900 ± 200	1300 ± 200	CCN1C(=O)C=CC1=O [N‐Ethylmaleimide]
